Results: patent US9585892B2, “Solid forms comprising N-(5-tert-butyl-isoxazol-3-yl)-N′-{4-[7-(2-morpholin-4-yl-ethoxy)imidazo[2,1-b][1,3]benzothiazol-2-yl]phenyl}urea, compositions thereof, and uses therewith” (AMBIT BIOSCIENCES CORPORATION, priority 2007, dated 2017)
Entries after “also recorded” stand apart in the source; their conditions may differ. Where a name gives a salt, the structure may show the parent alone. One block for each compound: values may come before it.

Assay: Stress experiments (temperature or relative humidity, XRPD after stress)
Type: physicochemical
Procedure: Stress Experiments. Solids were stressed under different temperature or relative humidity (RH) environments for a measured time period. Specific RH values were achieved by placing the sample inside sealed chambers containing saturated salt solutions. The salt solutions were selected and prepared following an ASTM standard procedure. Samples were analyzed by XRPD immediately after removal from the stress environment.
X-ray powder diffraction analyses were performed on an Inel XRG-3000 diffractometer, equipped with a curved position-sensitive detector with a […] of 120°. Real time data was collected using Cu Kα radiation starting at approximately 4 ° 2θ at a resolution of 0.03 ° 2θ. The tube voltage and amperage were set to 40 kV and 30 mA, respectively. […] Samples were prepared for analysis by packing them into thin-walled glass capillaries. Each capillary was mounted onto a goniometer head that is motorized to permit spinning of the capillary during data acquisition. Instrument calibration was performed daily using a silicon reference standard.

[1] = 75% RH, ambient temperature, 5 days
[2] = 75% RH, ambient temperature, 3 days
[3] = 75% RH, ambient temperature, 3 days, listed as Amorphous

SMILES: CC(C)(C)c1cc(NC(=O)Nc2ccc(-c3cn4c(n3)sc3cc(OCCN5CCOCC5)ccc34)cc2)no1 [Form A of the HBr salt of Compound B1, N-(5-tert-butyl-isoxazol-3-yl)-N′-{4-[7-(2-morpholin-4-yl-ethoxy)imidazo[2,1-b][1,3]benzothiazol-2-yl]phenyl}urea]
deliquescence upon storage (75% RH, 4 days): does not deliquesce; also recorded: did not deliquesce

SMILES: CC(C)(C)c1cc(NC(=O)Nc2ccc(-c3cn4c(n3)sc3cc(OCCN5CCOCC5)ccc34)cc2)no1 [Form A of the edisylate salt of Compound B1] [N-(5-tert-butyl-isoxazol-3-yl)-N′-{4-[7-(2-morpholin-4-yl-ethoxy)imidazo[2,1-b][1,3]benzothiazol-2-yl]phenyl}urea]
deliquescence upon storage (75% RH, 7 days): does not deliquesce; also recorded: did not deliquesce

SMILES: CC(C)(C)c1cc(NC(=O)Nc2ccc(-c3cn4c(n3)sc3cc(OCCN5CCOCC5)ccc34)cc2)no1 [Form A of the mesylate salt of Compound B1] [N-(5-tert-butyl-isoxazol-3-yl)-N′-{4-[7-(2-morpholin-4-yl-ethoxy)imidazo[2,1-b][1,3]benzothiazol-2-yl]phenyl}urea]
deliquescence upon storage [1]: does not deliquesce; also recorded: did not deliquesce

SMILES: CC(C)(C)c1cc(NC(=O)Nc2ccc(-c3cn4c(n3)sc3cc(OCCN5CCOCC5)ccc34)cc2)no1 [Form A of the napsylate salt of Compound B1] [N-(5-tert-butyl-isoxazol-3-yl)-N′-{4-[7-(2-morpholin-4-yl-ethoxy)imidazo[2,1-b][1,3]benzothiazol-2-yl]phenyl}urea]
deliquescence upon storage (75% RH, 7 days): does not deliquesce; also recorded: did not deliquesce

SMILES: CC(C)(C)c1cc(NC(=O)Nc2ccc(-c3cn4c(n3)sc3cc(OCCN5CCOCC5)ccc34)cc2)no1 [Form B of the besylate salt of Compound B1] [N-(5-tert-butyl-isoxazol-3-yl)-N′-{4-[7-(2-morpholin-4-yl-ethoxy)imidazo[2,1-b][1,3]benzothiazol-2-yl]phenyl}urea]
deliquescence upon storage (75% RH, 7 days): does not deliquesce; also recorded: did not deliquesce

SMILES: CC(C)(C)c1cc(NC(=O)Nc2ccc(-c3cn4c(n3)sc3cc(OCCN5CCOCC5)ccc34)cc2)no1 [Form B of the esylate salt of Compound B1] [N-(5-tert-butyl-isoxazol-3-yl)-N′-{4-[7-(2-morpholin-4-yl-ethoxy)imidazo[2,1-b][1,3]benzothiazol-2-yl]phenyl}urea]
deliquescence upon storage (75% RH, 7 days): does not deliquesce; also recorded: did not deliquesce

SMILES: CC(C)(C)c1cc(NC(=O)Nc2ccc(-c3cn4c(n3)sc3cc(OCCN5CCOCC5)ccc34)cc2)no1 [Form B of the mesylate salt of Compound B1] [N-(5-tert-butyl-isoxazol-3-yl)-N′-{4-[7-(2-morpholin-4-yl-ethoxy)imidazo[2,1-b][1,3]benzothiazol-2-yl]phenyl}urea]
deliquescence upon storage (75% RH, 4 days): does not deliquesce; also recorded: did not deliquesce

SMILES: CC(C)(C)c1cc(NC(=O)Nc2ccc(-c3cn4c(n3)sc3cc(OCCN5CCOCC5)ccc34)cc2)no1 [Form B of the napsylate salt of Compound B1] [N-(5-tert-butyl-isoxazol-3-yl)-N′-{4-[7-(2-morpholin-4-yl-ethoxy)imidazo[2,1-b][1,3]benzothiazol-2-yl]phenyl}urea]
deliquescence upon storage (75% RH, 7 days): does not deliquesce; also recorded: did not deliquesce

SMILES: CC(C)(C)c1cc(NC(=O)Nc2ccc(-c3cn4c(n3)sc3cc(OCCN5CCOCC5)ccc34)cc2)no1 [Form B of the tosylate salt of Compound B1] [N-(5-tert-butyl-isoxazol-3-yl)-N′-{4-[7-(2-morpholin-4-yl-ethoxy)imidazo[2,1-b][1,3]benzothiazol-2-yl]phenyl}urea]
deliquescence upon storage [1]: does not deliquesce; also recorded: did not deliquesce

SMILES: CC(C)(C)c1cc(NC(=O)Nc2ccc(-c3cn4c(n3)sc3cc(OCCN5CCOCC5)ccc34)cc2)no1 [Form C of the sulfate salt of Compound B1] [N-(5-tert-butyl-isoxazol-3-yl)-N′-{4-[7-(2-morpholin-4-yl-ethoxy)imidazo[2,1-b][1,3]benzothiazol-2-yl]phenyl}urea]
deliquescence upon storage (75% RH, 7 days): does not deliquesce; also recorded: did not deliquesce

XRPD Result after stress (Oven: 80° C., 3 days): Form D
SMILES: CC(C)(C)c1cc(NC(=O)Nc2ccc(-c3cn4c(n3)sc3cc(OCCN5CCOCC5)ccc34)cc2)no1 [Form D of the HCl salt of Compound B1, N-(5-tert-butyl-isoxazol-3-yl)-N′-{4-[7-(2-morpholin-4-yl-ethoxy)imidazo[2,1-b][1,3]benzothiazol-2-yl]phenyl}urea]

XRPD Result after stress (Oven: 80° C., 3 days, listed as F): Disordered + F
SMILES: CC(C)(C)c1cc(NC(=O)Nc2ccc(-c3cn4c(n3)sc3cc(OCCN5CCOCC5)ccc34)cc2)no1 [Form F of the HCl salt of Compound B1, N-(5-tert-butyl-isoxazol-3-yl)-N′-{4-[7-(2-morpholin-4-yl-ethoxy)imidazo[2,1-b][1,3]benzothiazol-2-yl]phenyl}urea]
XRPD Result after stress (Oven: 80° C., 3 days): substantially disordered, but which retains some Form F content

XRPD Result after stress [2]: remains unchanged | water corresponding to the weight gain [2]: about 4.3 molar equivalents of water | weight gain [2]: about 12.3% | XRPD Result after stress [3]: Amorphous | weight gain [3]: white solid, irregular particles, 11.8% | XRPD Result after stress (Oven: 40° C., 8 days): remains unchanged | XRPD Result after stress (Oven: 40° C., 8 days, listed as Amorphous): Amorphous
SMILES: CC(C)(C)c1cc(NC(=O)Nc2ccc(-c3cn4c(n3)sc3cc(OCCN5CCOCC5)ccc34)cc2)no1 [N-(5-tert-butyl-isoxazol-3-yl)-N′-{4-[7-(2-morpholin-4-yl-ethoxy)imidazo[2,1-b][1,3]benzothiazol-2-yl]phenyl}urea]
deliquescence upon storage [2]: does not deliquesce; also recorded: did not deliquesce
